From paper PMC5813016 (Nature Communications, 2018)
Several values for one entry are separate records, joined by “and”; a condition that tells them apart may be missing. Identical values can stand only once.

What was measured:
[1] = Equilibrium dialysis, unbound fraction in monkey plasma; format: in vitro ADME; details: read-out: unbound fraction in monkey plasma (fu,p)
cynomolgus monkeys = test: Monkey spontaneous eye blink rate (EBR); format: in vivo, Macaca fasicularis; details: cynomolgus monkey; for EBR response on repeated daily dosing (3 days): n = 3, A-77636 s.c., PF-2334 oral 0.6 + 0.3 mg/kg
Procedure: Increase in spontaneous EBR has been previously shown with D1 agonists and partial agonists. To confirm the specificity of the response in our particular assay set up for D1 activation, we verified that the D1 receptor antagonist SCH-39166 fully blocks the increased eye blink response of non-catechol full D1 agonist that is a close structural analog of the compounds in this paper (data not shown). All procedures involving animals were conducted with approval of the Pfizer Institutional Animal Care and Use Committee (Groton, CT) and compliant with the regulations and standards of the Animal Welfare Act (9CFR2, 9CFR3). Three male Cynomolgus macaques (Macaca fasicularis) of Mauritian origin, 7–10 years old, SPF for CHV-1, SIV, STLV1 and SRV 1, 2, 5 were used. Animals were exposed to 12 h light/dark cycle (lights on 6:00 AM – 6:00 PM). […] EBRS were recorded from chaired animals for 2 min at 10 min intervals by a trained observer through direct visual observation who was blinded to experimental conditions. Animals were chaired at approximately 7:30 AM. After vehicle or compound administration, eye blinks were recorded during the following intervals: from 10 to 50 min (0–1 h), 130 to 170 min (2–3 h), 310 to 350 min (5–6 h). Animals were returned to their home cages between two consecutive sessions and after the final recording of the day. Blood samples (1 ml) were collected from the femoral vein at 1 and 5 h after the first dose to quantitate plasma compound levels. […] A77636 was dissolved in 0.9% sterile saline, formulated fresh prior to administration, and given once per day for 3 days. […] Vehicle control was administered on day 0.
EBR data were first converted to blinks per minute. EBR were averaged by binning into 3 periods: Period 1 (0–1 h after the first dose) EBR = mean of 10, 20, 30, 40, and 50 min recordings; Period 2 (2–3 h after the first dose) EBR = mean of 130, 140, 150, 160, and 170 min recordings; Period 3 (5–6 h after the first dose) EBR = mean of 310, 320, 330, 340, and 350 min recordings. For Fig. 5c EBR data were averaged by binning data from periods 1 through 3 as daily EBR. Data from each animal was then normalized to their respective Day 1 EBR and expressed as percent of Day 1 EBR for each drug. EBR data were analyzed with SAS® 9.4 (SAS Institute Inc. Cary, NC) using a mixed linear model (Mixed Procedure) for repeated measures. The model included treatment, day, time period, and their interactions as fixed effects, and animal and animal-by-day interaction as random effects. A first order autoregressive model was used for longitudinal covariance structure. Differences between least squares means across days, overall and for each time period, were tested and adjusted for multiple comparisons via Tukey method. […]

human D1R I117A mutant = test: cAMP assay, D1R mutant I117A; details: relative to wild-type D1R; each table line is one experiment (Experiment # 1-6)
human D1R V270A mutant = test: cAMP assay, D1R mutant V270A; details: relative to wild-type D1R; each table line is one experiment (Experiment # 1-6)
[2] = Rat pharmacokinetic studies; format: in vivo, Wistar Hannover rat; details: for plasma concentration profile after oral administration: compared with SKF-38393; for clearance / Vd / bioavailability / half-life: male, Wistar Hannover, plasma; for clearance / Vd: iv; for Vd: read-out: Vdss; for bioavailability: oral bioavailability; for half-life: read-out: t½ (converted)
Procedure: Rat pharmacokinetic studies were conducted at BioDuro, Pharmaceutical Product Development, Inc. (Shanghai, China). Wistar Hannover rats (227–293 gram weight) were obtained from Vital River Laboratories (China). All animal studies were conducted in accordance with the Pfizer Institutional Animal Care and Use Committee (Groton, CT), using protocols approved by Pfizer PDM′s Global BA Committee (2009). Jugular vein-cannulated male Wistar Hanover rats were maintained on a 12 h light/dark cycle for a minimum of three days in a temperature-controlled and humidity-controlled environment with free access to food and water. Individual animals (n = 2 or 3 per dose/route) were administered a single dose of compound by either intravenous injection via tail vein or oral gavage based on body weight. […] The PF-6142 intravenous dose (1 mg/kg) was formulated in saline acidified with three molar equivalents of 1 N hydrochloric acid and the PF-6142 oral dose (5 mg/kg) was formulated in 0.5% methylcellulose. […] Formulations were agitated until all of the test article was dissolved. […] From each rat, serial blood samples were collected via jugular vein cannula prior to dose administration and at the following time points post-dose: 0.033 (i.v. only), 0.083, 0.25, 0.5, 1, 2, 4, 7, and 24 h. […] All blood samples were placed on wet ice until centrifugation. Following centrifugation, the plasma was transferred to polypropylene tubes and stored frozen at either −20 °C to −80 °C until analysis. Urine was collected from all intravenous-dosed rats into collection tubes from the collection intervals of 0–7 h and 7–24 h post-dose. […] All urine samples were stored at −80 °C until analysis. All samples were processed for quantitation of compound concentrations using protein precipitation methodology followed by analysis using liquid chromatography-tandem mass spectrometry (LC-MS/MS). […] The pharmacokinetic parameters (including those in Supplementary Table 3) were computed by non-compartmental analysis[61] using Watson Bioanalytical LIMS version 7.4 (Thermo Fischer Scientific, CA).

human D1R S188I mutant = test: cAMP assay, D1R mutant S188I; details: relative to wild-type D1R; each table line is one experiment (Experiment # 1-6)
human D1R S199A mutant = test: cAMP assay, D1R mutant S199A; details: relative to wild-type D1R; each table line is one experiment (Experiment # 1-6)
human D1R F288A mutant = test: cAMP assay, D1R mutant F288A; details: relative to wild-type D1R; each table line is one experiment (Experiment # 1-6)
human D1R N292A mutant = test: cAMP assay, D1R mutant N292A; details: relative to wild-type D1R; each table line is one experiment (Experiment # 1-6)
human D1R W321A mutant = test: cAMP assay, D1R mutant W321A; details: relative to wild-type D1R; each table line is one experiment (Experiment # 1-6)

SMILES	fraction unbound [1]	EBR response on repeated daily dosing (3 days) (cynomolgus monkeys)	increase of spontaneous EBR over baseline after single dose (cynomolgus monkeys; A-77636 s.c. (0.1 mg/kg as printed elsewhere in the source), PF-2334 oral 0.6 mg/kg + 0.3 mg/kg 8 h later)	fold shift of cAMP functional potency, I117A (EC50 mutant/ EC50 WT) (human D1R I117A mutant)	fold shift of cAMP functional potency, V270A (EC50 mutant/ EC50 WT) (human D1R V270A mutant)	plasma concentration profile after oral administration [2]	clearance [2] [mL/min/kg]	Vd [2] [L/kg]	bioavailability [2] [%]	half-life [2] [min]	fold shift of cAMP functional potency, S188I (EC50 mutant/ EC50 WT) (human D1R S188I mutant)	fold shift of cAMP functional potency, S199A (EC50 mutant/ EC50 WT) (human D1R S199A mutant)	fold shift of cAMP functional potency, F288A (EC50 mutant/ EC50 WT) (human D1R F288A mutant)	fold shift of cAMP functional potency, N292A (EC50 mutant/ EC50 WT) (human D1R N292A mutant)	fold shift of cAMP functional potency, W321A (EC50 mutant/ EC50 WT) (human D1R W321A mutant)
NC[C@@H]1O[C@H](C23CC4CC(CC(C4)C2)C3)Cc2c1ccc(O)c2O [A-77636, reference compound]	0.044	progressively and significantly attenuated with each dosing day	2–3 fold												
Cc1cc(Oc2cccc(O)c2O)ccc1-c1c(C)ncnc1C [PF-1437]				15.2	0.6										
Cc1n[nH]c(=O)c(C)c1-c1ccc(Oc2nccc3occc23)cc1F [PF-2334]	0.04	sustained after multiple days of dosing				more sustained plasma concentration profiles	20.8	1.2	57.2	48					
Cc1cc(Oc2nccc3occc23)ccc1-c1c(C)ncc2nccn12 [PF-6142]				9.8	1.7	more sustained plasma concentration profiles	42.5	2.4	85.4	66	10.6 and 8.5 and 10.1 and 6.7	8.7 and 10.0	141.2 and 88.7	23.7 and 30.6	22.7 and 21.1
Cc1cc(Oc2nccc3occc23)ccc1-c1c(C)ncnc1C [PF-8871]											5.8 and 10.8 and 8.7	4.3	146.3	30.7	21.4
